Data on one compound can be found in patent US20250161317A1, “MOLIDUSTAT FORMULATIONS AND METHODS OF USE FOR TREATMENT OF ANEMIA IN CATS” (ELANCO US INC., priority 2022, published 2025).

One data set has as its system Erythropoietin (EPO). Description: Erythropoietin concentrations after single oral administration (Example 2). The following applies: 6 hours after treatment, oral 3.0 mg/kg to fed or fasted cats. It counts as in vivo, cat. The method, then: Four adult, healthy, female European Shorthaired cats were selected for the study. On the day prior to treatment feed was withdrawn to ensure a fasted prandial state for the oral treatment.
The animals were treated in a fasted prandial state with the test item at a single oral dose rate of 3.0 mg/kg. After a wash out period of 14 days the animals were treated with the test item at the same dose rate and same administration route, but in a fed prandial state. Frequent blood samplings at fixed intervals were performed over a period of 48 hours after each treatment.
Peak and extent of plasma exposure of molidustat was higher if administered orally as sodium salt to cats at fasted prandial state compared to fed prandial state. Metabolized molidustat amounted to approximately 60% in total exposure independent of prandial state.

A short description of data set [1]: Plasma pharmacokinetics after repeated once daily oral dosing of 2.5% (m/v) oily suspension. Type of data set: in vivo, cat. The following applies: for AUC / Cmax / Tmax / half-life: both sexes, plasma, po, 4.8 mg/kg, 4.8 mg molidustat sodium per kg once daily oral, geometric mean (CV). On the procedure: Following a single group design, eight healthy, young adult cats (4 neutered males, 4 spayed females) were included in the study. The animals were between 14 and 15.5 months old and weighed between 3.35 and 4.95 kg at start of the in-life phase.
The dose rate administered was 4.8 mg molidustat sodium per kg. Dosing was once daily on 6 consecutive days keeping an interval of 24 h. Dose rate calculation was based on the body weights determined on SD-1 for all administrations.
Thirty-one blood samples were drawn per animal following a pre-determined schedule deemed suitable to describe the pharmacokinetic profile of the active substance contained in the test item after repeated dosing to cats.
Concentrations of the active substance molidustat and its major metabolite in plasma were analyzed by High Performance Liquid Chromatography/Tandem Mass Spectrometry. The lower limit of quantitation was 5 μg/L for each substance.
Pharmacokinetic evaluation of plasma concentration data was based on the observed data using non-compartmental methods and comprised all PK-parameters to adequately describe the absorption, distribution and elimination phase of the active substance and its metabolite after repeated dosing with the test item.

One may read the AUC as the area under the concentration-time curve, a measure of exposure. A higher AUC goes with more exposure. One may read the Cmax as the highest concentration seen after dosing. The term Tmax denotes the time at which the peak concentration occurs. The half-life is how long it takes for the measured level to halve. Low readings indicate fast loss, high ones slow loss.

Turning to `O=c1c(-n2ccnn2)c[nH]n1-c1cc(N2CCOCC2)ncn1` [molidustat, 2-[6-(morpholin-4-yl)pyrimidin-4-yl]-4-(1H-1,2,3-triazol-1-yl)-2,3-dihydro-1H-pyrazol-3-one], the “Erythropoietin (EPO) concentrations” value in the data set on Erythropoietin (EPO) is on record as “highly increased”. For the same compound, in data set [1] (first dose), the AUC turned out to be 13300 ng·h/mL, the concentration peaked (Cmax) at 4460 ng/mL, the Tmax turned out to be 0.64 h and the half-life is 4.2 h. Further, in data set [1] (last (6th) dose), the AUC worked out at 13300 ng·h/mL, the Cmax is 4100 ng/mL, the Tmax came out at 0.94 h and the half-life turned out to be 6.5 h. In data set [1] (repeated once daily oral dosing, 6 days), the accumulation index stood at 1.1.
